# Reference: ChEMBL document CHEMBL1255377, “Synergy of human immunodeficiency virus protease inhibitors with chloroquine against Plasmodium falciparum in vitro and Plasmodium chabaudi in vivo” (Antimicrob Agents Chemother, 2008)
# Active and inactive are the calls of the source. The calls are words filed in the database; no cut-off is given here.
# Key:
# Type in all cases: functional, organism-based
# Plasmodium falciparum [1] = assay: Antimicrobial activity against chloroquine-resistant Plasmodium falciparum Dd2 infected in human erythrocytes assessed as potentiation of choloroquine-mediated antimalarial activity by light microscopy
# Plasmodium falciparum [2] = assay: Antimicrobial activity against chloroquine-resistant Plasmodium falciparum 3D7 infected in human erythrocytes assessed as potentiation of choloroquine-mediated antimalarial activity by light microscopy
# Plasmodium chabaudi [3] = assay: Antimicrobial activity against chloroquine-resistant Plasmodium chabaudi ASCQ infected in NIH mice (Mus musculus) assessed as potentiation of 2.5 mg/kg chloroquine-mediated antimalarial activity at 100 mg/kg, perorally administered after 72 hrs post inoculation measured on day 4 post infection
# Plasmodium chabaudi [4] = assay: Antimicrobial activity against chloroquine-resistant Plasmodium chabaudi ASCQ infected in NIH mice (Mus musculus) at 2.5 mg/kg, perorally administered after 72 hrs post inoculation measured on day 4 post infection; design: dose 2.5 mg/kg
# Plasmodium chabaudi [5] = assay: Antimicrobial activity against chloroquine-resistant Plasmodium chabaudi ASCQ infected in NIH mice (Mus musculus) at 10 to 160 mg/kg, perorally administered after 72 hrs post inoculation measured on day 4 post infection
# Plasmodium chabaudi [6] = assay: Antimicrobial activity against chloroquine-resistant Plasmodium chabaudi ASCQ infected in NIH mice (Mus musculus) assessed as potentiation of 2.5 mg/kg chloroquine-mediated antimalarial activity at 10 to 160 mg/kg, perorally administered after 72 hrs post inoculation measured on day 4 post infection
# Plasmodium chabaudi [7] = assay: Antimicrobial activity against chloroquine-sensitive Plasmodium chabaudi ASS infected in NIH mice (Mus musculus) assessed as potentiation of 2.5 mg/kg chloroquine-mediated antimalarial activity at 100 mg/kg, perorally administered after 72 hrs post inoculation measured on day 4 post infection
Structure (SMILES),Activity (Plasmodium falciparum [1]),Activity (Plasmodium falciparum [2]),Activity (Plasmodium chabaudi [3]),Activity (Plasmodium chabaudi [4]),Activity (Plasmodium chabaudi [5]),Activity (Plasmodium chabaudi [6]),Activity (Plasmodium chabaudi [7])
COC(=O)N[C@H](C(=O)N[C@@H](Cc1ccccc1)[C@@H](O)CN(Cc1ccc(-c2ccccn2)cc1)NC(=O)[C@@H](NC(=O)OC)C(C)(C)C)C(C)(C)C,Active,Active,Active,–,–,–,–
CCN(CC)CCCC(C)Nc1ccnc2cc(Cl)ccc12 (centres undefined),–,–,–,inactive,–,–,–
CC(C)c1nc(CN(C)C(=O)N[C@H](C(=O)N[C@@H](Cc2ccccc2)C[C@H](O)[C@H](Cc2ccccc2)NC(=O)OCc2cncs2)C(C)C)cs1,Active,Active,Active,–,Active,Active,Active
Cc1cccc(C)c1OCC(=O)N[C@@H](Cc1ccccc1)[C@@H](O)C[C@H](Cc1ccccc1)NC(=O)[C@H](C(C)C)N1CCCNC1=O,Active,Active,inactive,–,–,–,–
Cc1c(O)cccc1C(=O)N[C@@H](CSc1ccccc1)[C@H](O)CN1C[C@H]2CCCC[C@H]2C[C@H]1C(=O)NC(C)(C)C,Active,Active,Active,–,–,–,–
CC(C)(C)NC(=O)[C@@H]1C[C@@H]2CCCC[C@@H]2CN1C[C@@H](O)[C@H](Cc1ccccc1)NC(=O)[C@H](CC(N)=O)NC(=O)c1ccc2ccccc2n1,Active,Active,Active,–,–,–,–
